Laboratory results reported in US20250011281A1, “THERAPEUTIC ALKALOID COMPOUNDS” (Sensorium Therapeutics, Inc., priority 2023, published 2025).
Read-outs that look alike come from different tables or passages of the source.

How the values were obtained:
SERT = target: T1, SERT (Homo sapiens, UniProt P31645); experiment: SERT Inhibition Assay (Neurotransmitter Transportation Fluorescence assay); format: cell-based; conditions: for IC50 Ratio to (−) Mesembrine: SERT assay, ratio to compound 0001
T1 construct: expressed in transfected cells
T1 sequence (P31645 whole entry, species assumed): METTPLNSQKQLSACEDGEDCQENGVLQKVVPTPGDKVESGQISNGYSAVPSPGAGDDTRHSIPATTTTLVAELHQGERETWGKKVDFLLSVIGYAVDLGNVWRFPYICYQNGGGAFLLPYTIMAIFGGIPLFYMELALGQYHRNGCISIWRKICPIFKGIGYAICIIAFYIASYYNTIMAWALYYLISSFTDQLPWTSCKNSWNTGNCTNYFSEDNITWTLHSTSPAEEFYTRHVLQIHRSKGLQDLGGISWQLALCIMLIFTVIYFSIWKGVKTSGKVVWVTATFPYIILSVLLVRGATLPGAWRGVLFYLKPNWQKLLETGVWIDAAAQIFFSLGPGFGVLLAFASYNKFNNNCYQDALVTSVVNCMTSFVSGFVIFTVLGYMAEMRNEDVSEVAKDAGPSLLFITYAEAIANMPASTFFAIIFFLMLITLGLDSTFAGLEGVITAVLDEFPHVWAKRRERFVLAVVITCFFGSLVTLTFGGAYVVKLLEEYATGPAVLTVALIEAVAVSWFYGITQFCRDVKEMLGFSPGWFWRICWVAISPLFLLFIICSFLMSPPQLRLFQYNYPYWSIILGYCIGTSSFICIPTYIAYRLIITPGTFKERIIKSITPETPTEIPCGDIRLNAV
Method: Example A: SERT Inhibition Assay
SERT inhibition was measured using a Neurotransmitter Transportation Fluorescence assay. Briefly, stable 5HHH cells were prepared in a 384 microwell plate. Compounds were prepared by in assay buffer (20 mM HEPES, 0.1% BSA). The compounds were added to the plated cells and incubated for 30 minutes at 37° C. 25 μL of dye solution (Molecular Devices Neurotransmitter Transporter Uptake Assay Kit) was added per well and incubated for 30 minutes at 37° C. The plates were then read on a plate reader.

[1] = Metabolic stability compared to mesembrine; format: in vitro ADME
5-HTT = 5-HTT (Homo sapiens, UniProt P31645); experiment: Potency at 5-HTT compared to mesembrine
Sequence of 5-HTT (P31645 whole entry, species assumed): as above

5-HT transporter (SERT) = 5-HT transporter (SERT) (Homo sapiens, UniProt P31645); conditions: concentration response curves; cited from earlier work
Sequence of 5-HT transporter (SERT) (P31645 whole entry, species assumed): as above

[2] = stable 5HHH cells, 30 minutes at 37° C., read-out: SERT Assay Potency Range

SMILES | IC50 Ratio to (−) Mesembrine (SERT) | IC50 (SERT; [2]) [nM] | also measured
COc1ccc([C@@]23CCN(C)[C@@H]2C[C@H](O)[C@@H]2O[C@@H]23)cc1OC (single isomer, unassigned) [Compound 1932] | ≥10 | 100 to 500 | 
COc1ccc([C@@]23CC[C@H](O)C[C@@H]2N(C)CC3)cc1OC [6-epi-mesembranol] |  |  | metabolic stability [1]: enhanced metabolic stability; potency at 5-HTT (5-HTT): decrease in potency
COc1ccc([C@@]23CC[C@@H](O)C[C@@H]2N(C)CC3)cc1OC [Compound 0018, (3aS,6R,7aS)-3a-(3,4-dimethoxyphenyl)-1-methyloctahydro-1H-indol-6-ol] | ≥1.0 | < 50 | 
COc1ccc([C@@]23CC[C@H](O)C[C@@H]2N(C)CC3)cc1OC [Compound 0019, (3aS,6S,7aS)-3a-(3,4-dimethoxyphenyl)-1-methyloctahydro-1H-indol-6-ol] | ≥1.0 | < 50 | 
COc1ccc([C@@]23C=C[C@@H](O)C[C@@H]2N(C)CC3)cc1OC [Compound 0020] | ≥100 | 100 to 500 | 
COc1ccc([C@@]23C=C[C@H](O)C[C@@H]2N(C)CC3)cc1OC [Compound 0021] | ≥10 | 100 to 500 | 
COc1ccc([C@]23C=C[C@H](O)C[C@H]2N(C)CC3)cc1OC [Compound 0023] | ≥10 | 100 to 500 | 
COc1ccc([C@]23C=C[C@@H](O)C[C@H]2N(C)CC3)cc1OC [Compound 0024] | ≥100 | 100 to 500 | 
CCCOc1cc([C@@]23CC[C@@H](O)C[C@@H]2N(C)CC3)ccc1OC [Compound 0707] | ≥10 | 50 to 100 | 
CCCOc1cc([C@@]23CC[C@H](O)C[C@@H]2N(C)CC3)ccc1OC [Compound 0708] | ≥1.0 | < 50 | 
CCN1CC[C@]2(c3ccc(OC)c(OC)c3)CC[C@@H](O)C[C@H]12 [Compound 1001] | ≥100 | > 1000 | 
CCN1CC[C@]2(c3ccc(OC)c(OC)c3)CC[C@H](O)C[C@H]12 [Compound 1002] | ≥100 | 500 to 1000 | 
CCOc1ccc([C@@]23CC[C@@H](O)C[C@@H]2N(C)CC3)cc1OCC [Compound 1763] | ≥1.0 | < 50 | 
CCOc1ccc([C@@]23CC[C@H](O)C[C@@H]2N(C)CC3)cc1OCC [Compound 1764] | ≤0.5 | < 50 | 
COc1ccc([C@]23CCN(C)[C@H]2C[C@@H](O)[C@@H]2O[C@@H]23)cc1OC [Compound 1930] | ≥10 | 100 to 500 | 
COc1ccc([C@]23CCN(C)[C@H]2[C@H]2CC[C@@H]3C[C@H]2O)cc1OC [Compound 1933] | ≥1.0 | < 50 | 
COc1cc([C@@]23CC[C@H](O)C[C@@H]2N(C)CC3)ccc1O [Compound 2700] | ≥1.0 | < 50 | 
COc1cc([C@@]23CC[C@@H](O)C[C@@H]2N(C)CC3)ccc1OC(F)F [Compound 2723] | ≤0.5 |  | IC50 (SERT): < 50 nM
COc1cc([C@@]23CC[C@H](O)C[C@@H]2N(C)CC3)ccc1OC(F)F [Compound 2724] | ≤0.5 | < 50 | 
COc1ccc([C@@]23C=C[C@@H](O)C[C@@H]2N(C)CC3)cc1OC [Mesembrenol, mesembrenol] |  |  | nH (5-HT transporter (SERT)): 1.1
COc1ccc([C@@]23CC[C@@H](O)C[C@@H]2N(C)CC3)cc1OC [mesembranol, Mesembranol] |  |  | metabolic stability [1]: enhanced metabolic stability; potency at 5-HTT (5-HTT): decrease in potency
